Data taken from PubChem BioAssay AID1890 (The Scripps Research Institute Molecular Screening Center, 2009).
Active and inactive are the calls of the source. The rule behind the calls is not given here.

Target: Replicase polyprotein 1ab (Severe acute respiratory syndrome coronavirus) (UniProt P0C6X7)
Assay: SARS 3CLpro cleavage inhibition IC50 – biochemical, quenched FRET, dose response (AID 1890)
Settings: purified 3CLpro, quenched FRET peptide cleavage

SMILES	IC50
O=C(/C=C/c1ccccc1Cl)Nc1cccnc1	inactive
COc1ccccc1OCCNC(=O)c1cc(=O)[nH]c2ccccc12	3.6 µM
Cc1nnc(SC(=O)N2c3ccccc3Sc3ccccc32)s1	inactive
CC(C)c1ccc(N(C(=O)c2ccco2)C(C(=O)NC2CCCC2)c2cccnc2)cc1 (stereo unspecified)	5.93 µM
O=C(O)COc1ccc(Br)cc1C(c1c(C(=O)O)[nH]c2ccccc12)c1c(C(=O)O)[nH]c2ccccc12	> 59.6 µM (inactive)
Cc1ccc(C(=O)c2c3ccc(C(F)(F)F)cc3[n+]([O-])n2CCC(N)=O)cc1	inactive
O=C(/C=C/c1cccs1)Nc1scc(-c2ccccc2)c1C(=O)O	5.22 µM
O=c1[nH]c(=O)n(-c2ccccc2F)c(O)c1/C=C1\C=Nc2ccccc21	9.47 µM
NC(=O)CCn1c(C(=O)c2cc(Cl)c(N)c(Cl)c2)c2ccccc2[n+]1[O-]	9.81 µM
Cc1cccc2c1N(CCOc1ccccc1)C(=O)C2=O	inactive
COc1ccccc1/C=C/C(=O)c1cc(Br)ccc1OC(=O)c1ccco1	8.94 µM
Cc1cc(NC(=O)COC(=O)C(Nc2ccc(C(F)(F)F)cc2Cl)C(C)C)no1 (stereo unspecified)	> 59.6 µM (inactive)
O=C1C(=O)N(C/C=C/c2ccccc2)c2ccccc21	inactive
Cn1nc(-c2ccc(Cl)cc2)nc2c(=O)n(C)c(=O)nc1-2	> 19.9 µM (inactive)
COc1cc(C2CC(c3cccs3)=NN2C(=O)CCl)ccc1OC(F)F (stereo unspecified)	2.8 µM
COc1cccc(/C=N/NC(=S)Nc2cccnc2)c1	inactive
O=C(Oc1cccnc1)c1ccc(Cl)cc1	6.31 µM
O=C(N/N=C\c1c(O)ccc2ccccc12)c1cncc(Br)c1	inactive
Cc1cc(NC(=O)COn2nnc3ccc(S(C)(=O)=O)cc32)ccc1Br	inactive
O=C(Nc1ccccc1)NN(C(=O)CCl)c1ccccc1	9.64 µM
Cc1ccc(C2CC(c3cccs3)=NN2C(=O)CCl)cc1 (stereo unspecified)	4.19 µM
O=Cc1cn(Cc2ccccc2)nc1-c1cccnc1	7.21 µM
O=C(/C=C/c1c(F)cccc1Cl)Nc1cccnc1	inactive
O=C(Cn1nnc2ccccc21)c1ccc(Br)cc1	4.01 µM
CC1CCC2C(=O)N(c3cc(Cl)ccc3OC(=O)c3ccco3)C(=O)C2C1 (stereo unspecified)	5.39 µM
Cc1cc(=O)oc2cc(OC(=O)c3ccco3)ccc12	3.34 µM

SMILES	IC50
COc1ccc(C(C(=O)NCC2CCCO2)N(C(=O)Cn2nnc3ccccc32)c2ccc(NC(C)=O)cc2)cc1 (stereo unspecified)	9.35 µM
O=C(/C=C/c1ccc(Cl)c([N+](=O)[O-])c1)NCc1cccnc1	inactive
CC(C)C12CN(C(=O)c3ccccc3[N+](=O)[O-])CC(C(C)C)(CN(C(=O)c3ccccc3[N+](=O)[O-])C1)C2=O	inactive
CC(C)c1ccc(N(C(=O)c2csnn2)C(C(=O)NC2CCCC2)c2cccnc2)cc1 (stereo unspecified)	inactive
COc1ccc2cc(C3(C)NC(=O)N(CC(=O)NCc4ccco4)C3=O)ccc2c1 (stereo unspecified)	inactive
O=C1NC(=O)N(c2ccccc2F)C(=O)/C1=C/c1cn(CC(=O)N2CCOCC2)c2ccccc12	inactive
COc1cccc(C(C(=O)Nc2ccc(F)cc2)N(C(=O)Cn2nnc3ccccc32)C2CC2)c1 (stereo unspecified)	inactive
CCN(CC)C(=O)Cn1cc(/C=C2\C(=O)NC(=O)N(c3ccccc3F)C2=O)c2ccccc21	inactive
CC(=O)c1cc(-c2ccccc2)[nH]c1N1CCCC1	4.63 µM
Cc1cccc(N2CCN(C(=O)c3cc(=O)[nH]c4ccccc34)CC2)c1C	6.66 µM
CC(=O)n1cc(N(C(=O)CCl)c2ccc([N+](=O)[O-])cc2)c2ccccc21	inactive
O=C(c1cc(=O)[nH]c2ccccc12)N1CCN(c2cccc(C(F)(F)F)c2)CC1	5.1 µM
Nc1ncc(Br)cc1S(=O)(=O)Nc1cc(C(F)(F)F)cc(C(F)(F)F)c1	> 59.6 µM (inactive)
Cc1ccc2[nH]c3c(c2c1)CN(C(=O)CN1c2ccc(F)cc2CCC1C)CC3 (stereo unspecified)	inactive
CCCCOc1ccc(C(=O)Oc2cccnc2)cc1	> 59.6 µM (inactive)
COc1cc(/C=N\NC(=O)Cn2nnc3ccccc32)cc(OC)c1OC	5.18 µM
Cc1sc(NC(=O)CCl)c(C(=O)c2ccccc2)c1C	inactive
CCC(C)c1ccc(N(C(=O)c2ccco2)C(C(=O)NC2CCCC2)c2cccnc2)cc1 (stereo unspecified)	2.23 µM
COc1ccc(C2CC(c3cccs3)=NN2C(=O)CCl)cc1OC (stereo unspecified)	2.3 µM
O=C1C(=O)N(CC2COc3ccccc3O2)c2ccccc21 (stereo unspecified)	inactive
CC(=O)NC1C(=O)N(CCN2CCOCC2)c2ccc(F)cc21 (stereo unspecified)	9.1 µM
NC(=O)CCn1c(C(=O)c2ccc(Cl)cc2)c2ccccc2[n+]1[O-]	4.88 µM
O=C(Oc1ccc(Br)cc1C(=O)/C=C/c1ccccc1F)c1ccco1	7.12 µM
O=C1C(=O)N(CCCc2ccccc2)c2ccccc21	inactive
Cc1ccc(C(=O)Oc2ccc3c(c2)ncn3C)cc1	inactive
CC(=O)NC1C(=O)N(CCN2CCOCC2)c2ccc(Br)cc21 (stereo unspecified)	7.58 µM

SMILES	IC50
CC(C)C[C@H](NC(=O)c1nc[nH]c1C(=O)NCc1ccc(CNC(=O)OC(C)(C)C)cc1)C(=O)OC(C)(C)C	> 59.6 µM (inactive)
Cc1ccc(C(=O)O)cc1NC(=S)NC(=O)c1ccc(COc2ccccc2)cc1	> 59.6 µM (inactive)
Cc1cc(C(=O)CCl)c(C)n1-c1cccc([N+](=O)[O-])c1	4.59 µM
Cc1cc(C)c(N(C(=O)Cn2nnc3ccccc32)C(C(=O)NC(C)(C)C)c2ccsc2)c(C)c1 (stereo unspecified)	2.9 µM
Cc1ccc(C(=O)n2cnc3ccccc32)cc1C	inactive
COc1ccc(N(Cc2cc(=O)[nH]c3ccccc23)C(=O)CCl)cc1	inactive
CCc1cc(=O)oc2cc(OC(=O)c3ccco3)ccc12	2.96 µM
O=C(NCc1ccco1)C(c1ccco1)N(C(=O)Cn1nnc2ccccc21)c1ccc2c(c1)CCC2 (stereo unspecified)	inactive
COC(=O)c1ccc(OC(=O)CN2C(=O)c3ccccc3C2=O)cc1	> 59.6 µM (inactive)
CCc1cccc(CC)c1N(COC)C(=O)Cn1nnc2ccccc21	inactive
NC(=O)CCn1c(C(=O)c2cccc([N+](=O)[O-])c2)c2ccccc2[n+]1[O-]	inactive
COc1cccc(C(C(=O)NCc2ccco2)N(Cc2ccco2)C(=O)Cn2nnc3ccccc32)c1 (stereo unspecified)	7.76 µM
Cc1cc(C)c(C)c(S(=O)(=O)N2CCN(C(=O)c3cc(=O)[nH]c4ccccc34)CC2)c1C	4.83 µM
COc1cccc(C(C(=O)NCC2CCCO2)N(C(=O)Cn2nnc3ccccc32)c2ccc(NC(C)=O)cc2)c1 (stereo unspecified)	inactive
CN(C)S(=O)(=O)c1cccc(NC(=O)CSc2cccc3cccnc23)c1	inactive
O=C(Oc1ccc(Cl)cc1N1C(=O)CCC1=O)c1ccco1	inactive
O=C(O)c1[nH]c2ccccc2c1C(c1cc(Br)ccc1O)c1c(C(=O)O)[nH]c2ccccc12	> 59.6 µM (inactive)
CC(=O)Nc1ccc(N(C(=O)Cn2nnc3ccccc32)C(C(=O)NC2CCCC2)c2ccc(O)c(O)c2)cc1 (stereo unspecified)	inactive
O=C(OCC(=O)N1c2ccccc2Sc2ccccc21)c1cccnc1	inactive
COc1cc2c(cc1OC)C(c1cc(Br)ccc1F)N(C(=O)CCl)CC2 (stereo unspecified)	9.88 µM
Cc1cc(C)n(C(=O)c2ccc(C)c(Br)c2)n1	inactive
N#CCC(=O)N/N=C/c1c(-c2ccccc2)n(-c2ccccc2)c2ccccc12	> 59.6 µM (inactive)
O=C(CSc1ccccn1)Nc1nonc1[N+](=O)[O-]	7.07 µM
O=C(c1cc(=O)[nH]c2ccccc12)N1CCN(c2ccccc2)CC1	9.95 µM
CCC(C)(C)NC(=O)C(c1ccc(O)cc1)N(C(=O)Cn1nnc2ccccc21)c1ccc(NC(C)=O)cc1 (stereo unspecified)	inactive
COc1ccc2c(c1)C(=O)C(=O)N2CC1COc2ccccc2O1 (stereo unspecified)	9.74 µM

SMILES	IC50
O=C(Cn1nnc2ccccc21)c1ccc(Cl)cc1	9.91 µM
CCc1ccc2c(c1)C(NC(C)=O)C(=O)N2CCN1CCOCC1 (stereo unspecified)	6.56 µM
CC(=O)c1c(OC(=O)c2ccco2)c2ccccc2n1C	inactive
Cc1cc(=O)oc2cc(NC(=O)Cc3ccccc3[N+](=O)[O-])ccc12	> 59.6 µM (inactive)
COc1ccc(C(=O)n2c(SC)nc3cc4c(cc32)OCCO4)cc1	1.08 µM
Cc1ccc(C(=O)c2c3ccccc3[n+]([O-])n2CCC(N)=O)cc1	9.36 µM
O=C(O)c1ccc2ncsc2c1	inactive
CCOc1ccc2c(c1)C(=O)C(=O)N2CC1COc2ccccc2O1 (stereo unspecified)	4.29 µM
CCc1nc(N2CCN(C(=O)CCl)CC2)c2c3c(sc2n1)CC(C)CC3 (stereo unspecified)	4.23 µM
COc1ccc(C2C(O)C(c3c[nH]c4ccccc34)=NN2C(=O)CCl)cc1 (stereo unspecified)	3.58 µM
CCn1nc(-c2ccccc2)nc2c(=O)n(C)c(=O)nc1-2	> 59.6 µM (inactive)
Cc1ccc(-c2cc(NC(=O)c3ccccc3[N+](=O)[O-])n[nH]2)cc1	inactive
Cc1ccc(C2=NN(C(=O)CCl)C(c3ccco3)C2)o1 (stereo unspecified)	5.2 µM
O=C(Cc1ccc(Cl)c(Cl)c1)Nc1cccnc1	inactive
C[C@@]12C(=O)N(c3cccc(Br)c3)C(=O)N1[C@H](c1ccc(Cl)cc1)[C@@H]1C(=O)N(C3CCCCC3)C(=O)[C@@H]12	> 59.6 µM (inactive)
Cn1cnc2cc(NC(=O)c3ccc(Cl)cc3)ccc21	inactive
CC1(C)C2CC=C(/C=N/NC(=S)Nc3cccnc3)C1C2 (stereo unspecified)	> 59.6 µM (inactive)
CCC(C)(C)NC(=O)C(c1cccn1C)N(C(=O)Cn1nnc2ccccc21)c1ccc(NC(C)=O)cc1 (stereo unspecified)	6.29 µM
O=C(CCl)N(CCc1ccccc1)CCc1ccccc1	inactive
COc1ccc(N(C(=O)Cn2nnc3ccccc32)C2(C(=O)NC3CCCC3)CCCCC2)cc1	7.89 µM
COc1ccc(C(=O)Oc2cccnc2)cc1	> 59.6 µM (inactive)
Cc1ccc(/C=C/C(=O)c2cc(Br)ccc2OC(=O)c2ccco2)cc1	inactive
O=C(Nc1ccc(OCC(F)(F)C(F)F)c(C(F)(F)F)c1)c1ccccc1O	> 59.6 µM (inactive)
